According to patent US8247211B2, “Glycopeptide antibiotics” (American Cyanamid Company, priority 2001, dated 2012):

Columns and labels:
Test in all cases: In vitro antibacterial evaluation: minimum inhibitory concentration (MIC), broth dilution method
Format in all cases: cell-based
Enterococcus sp. = system: Enterococcus sp.
Procedure, shortened: (§1)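 Using Muller-Hinton II […] and an inoculum of 5×10^5 CFU/mL, antibiotic dilutions from 64 down to 0.06 μg/mL were tested following NCCLS M7-A2. The MIC is the lowest concentration inhibiting growth, including in methicillin-, penicillin- or vancomycin-resistant clinical isolates.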

Staphylococcus sp. = system: Staphylococcus sp.
Procedure, shortened: as §1

Escherichia coli = system: Escherichia coli
Procedure, shortened: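 Test strains, among them recent clinical isolates carrying methicillin, penicillin and/or vancomycin resistance, were inoculated at 5×10^5 CFU/mL. A broth dilution series spanning 64-0.06 μg/mL in Muller-Hinton II […] (NCCLS M7-A2) defined the MIC as the lowest growth-inhibiting concentration.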

Streptococcus sp. = system: Streptococcus sp.
Procedure, shortened: as §1

[1] = broth dilution, 5×10^5 CFU/mL, 18 hours at 35° C.
[2] = broth dilution, inoculum 5×10^5 CFU/mL, 18 hours at 35° C.

COc1cccc(C2OC3C(OC4C(CO)OC(Oc5ccc(CC6NC(=O)C(C(C)c7ccccc7)NC(=O)CNC(=O)C(CO)NC(=O)C(C(O)C7CNC(=N)N7C7OC(CO)C(O)C(O)C7O)NC(=O)C(C(O)C7CNC(=N)N7)NC6=O)cc5)C(O)C4O)OC(CO)C(O)C3O2)c1 (single isomer, unassigned) [Example 137b, Cyclo[glycyl-β-methylphenylalanyl-O-[4-O-[2,3-O-(3-methoxybenzylidene)hexopyranosyl]-hexopyranosyl]tyrosyl-3-(2-iminoimidazolidin-4-yl)seryl-3-(3-hexopyranosyl-2-iminoimidazolidin-4-yl)serylseryl]]
32 µg/mL: MIC Enterococcus faecalis (ATCC 29212) (Enterococcus sp.; strain ATCC 29212) | MIC Enterococcus faecalis (GC 2242) (Enterococcus sp.; strain GC 2242) | MIC Enterococcus faecalis (GC 2691) (Enterococcus sp.; strain GC 2691) | MIC Enterococcus faecalis (GC 4552) (Enterococcus sp.; strain GC 4552) | MIC Enterococcus faecalis (GC 4553) (Enterococcus sp.; strain GC 4553) | MIC Enterococcus faecium (GC 4556) (Enterococcus sp.; strain GC 4556) | MIC Enterococcus avium (GC 4558) (Enterococcus sp.; strain GC 4558) | MIC Enterococcus faecalis (GC 6189) (Enterococcus sp.; strain GC 6189)
4 µg/mL: MIC Coagulase Negative Staphylococcus (GC 4548) (Staphylococcus sp.; [1]) | MIC Coagulase Negative Staphylococcus (GC 6257) (Staphylococcus sp.; [1]) | MIC Coagulase Negative Staphylococcus (GC 4548) (Staphylococcus sp.; strain GC 4548, broth dilution, 18 hours at 35° C.) | MIC Coagulase Negative Staphylococcus (GC 6257) (Staphylococcus sp.; strain GC 6257, broth dilution, 18 hours at 35° C.) | MIC Escherichi coli (GC 4560) (Escherichia coli; strain GC 4560) | MIC Streptococcus pyogenes (GC 4563) (Streptococcus sp.; strain GC 4563) | MIC Streptococcus agalactiae (GC 4564) (Streptococcus sp.; strain GC 4564)
64 µg/mL: MIC Enterococcus faecium (GC 2243) (Enterococcus sp.; strain GC 2243) | MIC Enterococcus faecalis (GC 3059) (Enterococcus sp.; strain GC 3059) | MIC Enterococcus faecalis (GC 4554) (Enterococcus sp.; strain GC 4554)
1 µg/mL: MIC Streptococcus pneumoniae (GC 1894) (Streptococcus sp.; strain GC 1894)
>64 µg/mL: MIC Escherichia coli (ATCC 25922) (Escherichia coli; strain ATCC 25922) | MIC Escherichia coli (GC 4559) (Escherichia coli; strain GC 4559)
8 µg/mL: MIC Enterococcus faecium (GC 4557) (Enterococcus sp.; strain GC 4557) | MIC Coagulase Negative Staphylococcus (GC 4547) (Staphylococcus sp.; [1]) | MIC Coagulase Negative Staphylococcus (GC 4549) (Staphylococcus sp.; [1]) | MIC Coagulase Negative Staphylococcus (GC 4551) (Staphylococcus sp.; [1]) | MIC Staphylococcus aureus (GC 4541) (Staphylococcus sp.; [1]) | MIC Staphylococcus aureus-SMITH (GC 4543) (Staphylococcus sp.; [1]) | MIC Staphylococcus haemolyticus (GC 4546) (Staphylococcus sp.; [1]) | MIC Staphylococcus aureus (GC 4541) (Staphylococcus sp.; strain GC 4541, broth dilution, 18 hours at 35° C.) | MIC Staphylococcus aureus-SMITH (GC 4543) (Staphylococcus sp.; strain GC 4543, broth dilution, 18 hours at 35° C.) | MIC Staphylococcus haemolyticus (GC 4546) (Staphylococcus sp.; strain GC 4546, broth dilution, 18 hours at 35° C.) | MIC Coagulase Negative Staphylococcus (GC 4547) (Staphylococcus sp.; strain GC 4547, broth dilution, 18 hours at 35° C.) | MIC Coagulase Negative Staphylococcus (GC 4549) (Staphylococcus sp.; strain GC 4549, broth dilution, 18 hours at 35° C.) | MIC Coagulase Negative Staphylococcus (GC 4551) (Staphylococcus sp.; strain GC 4551, broth dilution, 18 hours at 35° C.)
16 µg/mL: MIC Staphylococcus aureus (ATCC 29213) (Staphylococcus sp.; [1]) | MIC Staphylococcus aureus (GC 1131) (Staphylococcus sp.; [1]) | MIC Staphylococcus aureus (GC 3051) (Staphylococcus sp.; [1]) | MIC Staphylococcus aureus (GC 3053) (Staphylococcus sp.; [1]) | MIC Staphylococcus aureus (GC 4542) (Staphylococcus sp.; [1]) | MIC Staphylococcus aureus (GC 4544) (Staphylococcus sp.; [1]) | MIC Staphylococcus aureus (GC 4545) (Staphylococcus sp.; [1]) | MIC Staphylococcus aureus (ATCC 29213) (Staphylococcus sp.; strain ATCC 29213, broth dilution, 18 hours at 35° C.) | MIC Staphylococcus aureus (GC 1131) (Staphylococcus sp.; strain GC 1131, broth dilution, 18 hours at 35° C.) | MIC Staphylococcus aureus (GC 3051) (Staphylococcus sp.; strain GC 3051, broth dilution, 18 hours at 35° C.) | MIC Staphylococcus aureus (GC 3053) (Staphylococcus sp.; strain GC 3053, broth dilution, 18 hours at 35° C.) | MIC Staphylococcus aureus (GC 4542) (Staphylococcus sp.; strain GC 4542, broth dilution, 18 hours at 35° C.) | MIC Staphylococcus aureus (GC 4544) (Staphylococcus sp.; strain GC 4544, broth dilution, 18 hours at 35° C.) | MIC Staphylococcus aureus (GC 4545) (Staphylococcus sp.; strain GC 4545, broth dilution, 18 hours at 35° C.)
2 µg/mL: MIC Streptococcus pneumoniae (ATCC 6301) (Streptococcus sp.; strain ATCC 6301) | MIC Streptococcus pneumoniae (GC 4565) (Streptococcus sp.; strain GC 4565)

CC(c1ccccc1)C1NC(=O)CNC(=O)C(CO)NC(=O)C(C(O)C2CNC(=N)N2C2OC(CO)C(O)C(O)C2O)NC(=O)C(C(O)C2CNC(=N)N2)NC(=O)C(Cc2ccc(OC3OC(CO)C(OC4OC5COC6(CCCCCCCCCCCC6)OC5C(O)C4O)C(O)C3O)cc2)NC1=O (stereo not drawn) [Example 210]
<0.06 µg/mL: MIC Streptococcus pneumoniae (GC 1894) (Streptococcus sp.; Streptococcus pneumoniae (GC 1894), 18 hours at 35° C.) | MIC Streptococcus pneumoniae (GC 4565) (Streptococcus sp.; Streptococcus pneumoniae (GC 4565), 18 hours at 35° C.) | MIC Streptococcus pneumoniae (GC 1894) (Streptococcus sp.; [2]) | MIC Streptococcus pneumoniae (GC 4565) (Streptococcus sp.; [2])
32 µg/mL: MIC Enterococcus faecalis (ATCC 29212) (Enterococcus sp.; Enterococcus faecalis (ATCC 29212), 18 hours at 35° C.) | MIC Enterococcus faecalis (GC 3059) (Enterococcus sp.; Enterococcus faecalis (GC 3059), 18 hours at 35° C.) | MIC Enterococcus faecalis (GC 4552) (Enterococcus sp.; Enterococcus faecalis (GC 4552), 18 hours at 35° C.) | MIC Enterococcus faecalis (GC 4554) (Enterococcus sp.; Enterococcus faecalis (GC 4554), 18 hours at 35° C.) | MIC Enterococcus faecium (GC 2243) (Enterococcus sp.; Enterococcus faecium (GC 2243), 18 hours at 35° C.) | MIC Enterococcus faecium (GC 4556) (Enterococcus sp.; Enterococcus faecium (GC 4556), 18 hours at 35° C.) | MIC Enterococcus faecium (GC 4557) (Enterococcus sp.; Enterococcus faecium (GC 4557), 18 hours at 35° C.) | MIC Enterococcus faecalis (ATCC 29212) (Enterococcus sp.; [2]) | MIC Enterococcus faecalis (GC 3059) (Enterococcus sp.; [2]) | MIC Enterococcus faecalis (GC 4552) (Enterococcus sp.; [2]) | MIC Enterococcus faecalis (GC 4554) (Enterococcus sp.; [2]) | MIC Enterococcus faecium (GC 2243) (Enterococcus sp.; [2]) | MIC Enterococcus faecium (GC 4556) (Enterococcus sp.; [2]) | MIC Enterococcus faecium (GC 4557) (Enterococcus sp.; [2]) | MIC Staphylococcus aureus (ATCC 29213) (Staphylococcus sp.; strain ATCC 29213) | MIC Staphylococcus aureus (GC 1131) (Staphylococcus sp.; strain GC 1131) | MIC Staphylococcus aureus (GC 3051) (Staphylococcus sp.; strain GC 3051) | MIC Staphylococcus aureus (GC 3053) (Staphylococcus sp.; strain GC 3053) | MIC Staphylococcus aureus (GC 4541) (Staphylococcus sp.; strain GC 4541) | MIC Staphylococcus aureus (GC 4542) (Staphylococcus sp.; strain GC 4542) | MIC Staphylococcus aureus-SMITH (GC 4543) (Staphylococcus sp.; strain GC 4543) | MIC Staphylococcus aureus (GC 4544) (Staphylococcus sp.; strain GC 4544) | MIC Staphylococcus aureus (GC 4545) (Staphylococcus sp.; strain GC 4545) | MIC Staphylococcus haemolyticus (GC 4546) (Staphylococcus sp.; strain GC 4546) | MIC Coagulase Negative Staphylococcus (GC 4547) (Staphylococcus sp.; strain GC 4547) | MIC Coagulase Negative Staphylococcus (GC 4548) (Staphylococcus sp.; strain GC 4548) | MIC Coagulase Negative Staphylococcus (GC 4551) (Staphylococcus sp.; strain GC 4551) | MIC Coagulase Negative Staphylococcus (GC 6257) (Staphylococcus sp.; strain GC 6257)
16 µg/mL: MIC Enterococcus avium (GC 4558) (Enterococcus sp.; Enterococcus avium (GC 4558), 18 hours at 35° C.) | MIC Enterococcus faecalis (GC 2242) (Enterococcus sp.; Enterococcus faecalis (GC 2242), 18 hours at 35° C.) | MIC Enterococcus faecalis (GC 4553) (Enterococcus sp.; Enterococcus faecalis (GC 4553), 18 hours at 35° C.) | MIC Enterococcus faecalis (GC 6189) (Enterococcus sp.; Enterococcus faecalis (GC 6189), 18 hours at 35° C.) | MIC Enterococcus avium (GC 4558) (Enterococcus sp.; [2]) | MIC Enterococcus faecalis (GC 2242) (Enterococcus sp.; [2]) | MIC Enterococcus faecalis (GC 4553) (Enterococcus sp.; [2]) | MIC Enterococcus faecalis (GC 6189) (Enterococcus sp.; [2])
2 µg/mL: MIC Streptococcus pyogenes (GC 4563) (Streptococcus sp.; Streptococcus pyogenes (GC 4563), 18 hours at 35° C.) | MIC Streptococcus pyogenes (GC 4563) (Streptococcus sp.; [2])
8 µg/mL: MIC Enterococcus faecalis (GC 2691) (Enterococcus sp.; Enterococcus faecalis (GC 2691), 18 hours at 35° C.) | MIC Enterococcus faecalis (GC 2691) (Enterococcus sp.; [2]) | MIC Coagulase Negative Staphylococcus (GC 4549) (Staphylococcus sp.; strain GC 4549)
>64 µg/mL: MIC Escherichia coli (ATCC 25922) (Escherichia coli; Escherichia coli (ATCC 25922), 18 hours at 35° C.) | MIC Escherichia coli (GC 4559) (Escherichia coli; Escherichia coli (GC 4559), 18 hours at 35° C.)
0.25 µg/mL: MIC Streptococcus agalactiae (GC 4564) (Streptococcus sp.; Streptococcus agalactiae (GC 4564), 18 hours at 35° C.) | MIC Streptococcus pneumoniae (ATCC 6301) (Streptococcus sp.; Streptococcus pneumoniae (ATCC 6301), 18 hours at 35° C.) | MIC Streptococcus agalactiae (GC 4564) (Streptococcus sp.; [2]) | MIC Streptococcus pneumoniae (ATCC 6301) (Streptococcus sp.; [2])
64 µg/mL: MIC Escherichia coli (GC 4560) (Escherichia coli; Escherichia coli (GC 4560), 18 hours at 35° C.)
